Measured values from patent US20220402867A1, “SULFO-SUBSTITUTED BIARYL COMPOUND OR SALT THEREOF, PREPARATION METHOD THEREFOR, AND USE THEREOF” (Shanghai Litedd Co., Ltd., priority 2019, published 2022).
pEC50: −log10 of the molar value.

Legend:
[1] = Metabolic stability in human liver microsomes; type: in vitro ADME; conditions: for microsomal CLint: 0.5 mg protein/mL
From the text: (§1) According to standard methods of in vitro metabolic stability studies in the art, eg., the methods described in Kerns, Edward H. and Di Li (2008). Drug-like Properties: Concepts, Structure Design and Methods: from ADME to Toxicity Optimization. San Diego: Academic Press; Di, Li et al., Optimization of a Higher Throughput Microsomal Stability Screening Assay for Profiling Drug Discovery Candidates, J. Biomol. Screen. 2003, The method described in 8(4), 453, the liver microsomal metabolic stability test of the compounds of the present disclosure was carried out analogously as follows.
(§2) The incubation system contained 0.5 mg protein/mL microsomes, cofactors, and PBS, was pre-incubated at 37° C. for 3 min, and then added the substrate (i.e., the test compounds) to initiate the reaction. Samples were taken at 0, 1, 5, 10, 15, 20, 30 and 60 min from the start of the reaction, and an appropriate terminator was added to terminate the reaction.
(§3) The terminator was an ice acetonitrile solution containing 100 ng/mL tolbutamide and 100 ng/mL labetalol.
(§4) Sample treatment (n=3): each appropriate sample was added, vortexed and centrifuged at high speed. The supernatants were collected, and the substrate was detected by HPLC-MS/MS. The peak area at the 0 min was taken as 100%. The peak areas at other time points were converted to percentage of the remaining amount. The natural logarithms of the percentage of remaining amount at each time point was plotted against the incubation time, and the slope (−k) was calculated by linear regression. Then, Clint (uL/min/mg) and half-life (T½, min) of the compounds were calculated following the equation of the inherent clearance rate (Clint)=(k* volume of incubation solution)/mass of liver microsomes.

[2] = biological target: T1, RORγt (RORγ-LBD chimeric receptor) (Homo sapiens, UniProt P51449); assay: Luciferase reporter gene assay of RORγt agonistic activity in HEK293T cells; type: cell-based; set-up: Emax: dose or concentration left out as unconfirmed; conditions: for pEC50: HEK293T, GAL4 luciferase reporter, read-out: EC50; for Emax: HEK-293T
T1 construct: host or cells: HEK293T
T1 sequence (P51449 269-508 limits assumed): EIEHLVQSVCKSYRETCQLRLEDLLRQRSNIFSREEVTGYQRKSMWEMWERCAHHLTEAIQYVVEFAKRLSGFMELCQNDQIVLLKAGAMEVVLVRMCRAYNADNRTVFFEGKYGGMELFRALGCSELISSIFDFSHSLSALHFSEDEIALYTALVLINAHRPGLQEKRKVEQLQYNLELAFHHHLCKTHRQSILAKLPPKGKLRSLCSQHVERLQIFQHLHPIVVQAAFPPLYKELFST
From the text: This assay was basically carried out according to the method described in the literature ONCOIMMUNOLOGY, 2016, VOL. 5, NO. 12, e1254854.
The RORγ-LBD coding sequence was inserted into pBIND plasmid (Promega, E1581). This expression vector and a reporter vector (pGL4.35 carrying a stably integrated luciferase reporter gene driven by GAL4 promoter) were co-expressed in HEK293T host cells. When the agonist binds to the corresponding chimeric receptor, the chimeric receptor binds to the GAL4 binding site on the reporter gene carrier and stimulates reporter gene expression. The agonistic activity of the compound on RORγ was determined according to the intensity of the chemiluminescence signal.
1.1 All test compounds were serially diluted at 3-fold dilution with DMSO, with 10 serial dilutions starting from 10 mM; LIT-00093 solution was prepared similarly. […] 1.4 The compound plate was sealed and shaken for 5 min.
Cells were cultured according to ATCC standard operation, and 6*10^6 HEK293T cells were seeded into 100 mm cell culture dishes, cultured overnight in a 37° C., 5% CO2 incubator, and then transfected. Compounds of corresponding concentrations were added for treatment, and the Steady-Glo™ kit (Lot E 2520) was used for further detection.
Chemiluminescence values were detected with Envision 2104; EC50 values were calculated.
% Activity was calculated with the following equation: […]
RLU: […] R L Upositive: average value of positive control R L Uvehicle: average value of negative control
The log values of the compound concentration and % Activity were fitted using Graphad 8.0, to calculate EC50s of the compounds.

GST-RORγ LBD (263-509) = biological target: T2, GST-RORγ LBD (263-509) (Homo sapiens, UniProt P51449); assay: TR-FRET assay of agonistic activity on RORγ receptor; type: biochemical; conditions: for pEC50: TR-FRET, GST-RORγ LBD with Biotin-SRC1
T2 construct: GST-RORγ LBD ((263-509) (produced at ChemPartner))
T2 sequence (P51449 263-509): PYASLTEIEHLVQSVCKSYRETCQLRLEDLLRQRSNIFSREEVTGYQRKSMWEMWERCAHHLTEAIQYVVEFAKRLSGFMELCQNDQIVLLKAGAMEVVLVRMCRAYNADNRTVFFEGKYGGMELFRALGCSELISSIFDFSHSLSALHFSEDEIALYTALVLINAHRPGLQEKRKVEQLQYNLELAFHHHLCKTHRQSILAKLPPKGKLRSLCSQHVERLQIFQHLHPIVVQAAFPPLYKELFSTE
Experimental: A time-resolved fluorescence resonance energy transfer (TR-FRET) assay was used for the compounds of the present disclosure, to determine the agonistic activity of the compounds on the RORγ protein receptor. The agonistic activity is expressed by the concentration for 50% of maximal effect (EC50). The experiment was performed basically with reference to the methods described in ONCOIMMUNOLOGY, 2016, VOL. 5, NO. 12, e1254854.
1. Preparation of RORγ Basal Buffer
A 100 mL basal buffer was prepared, mixed homogeneously and stored for use;
The compounds of the examples shown in the table below were prepared into solutions with DMSO as the solvent, serially diluted at 3-fold dilution to 10 concentrations starting from 10 mM, and added to the corresponding wells of a 384-well plate with each concentration of each compound in duplicate;
a. A 75 nM solution of GST-RORγ LBD ((263-509) (produced at ChemPartner)) and a 4 nM solution of Biotin-SRC1 (Glsbiochem) were prepared with the above basal buffer. The two solutions were 1:1 mixed evenly, and 10 μL of the mixed solution was added into each well of the above 384-well plate. The plate was immediately centrifugated at 1000 rpm for 10 seconds; b. A 1 nM solution of Anti-GST Eu (Cisbio, #61GSTKLA) and a 50 nM solution of SA-APC (Cisbio, […]) were prepared with the above basal buffer. The two solutions were 1:1 mixed evenly, and 10 μL of the mixed solution was added into each well of the above 384-well plate. The plate was immediately centrifugated at 1000 rpm for 10 seconds; c. The resulting 384-well plate was incubated at room temperature for 15 minutes. Data were read on an Envision microplate reader, EC50 values and E max % were calculated.
a. Readings were taken at 665 nm and 615 nm wavelengths respectively on the Envision Microplate Reader, and the ratios between them were normalized. b. Calculation was carried out with the following equation: […]
wherein X is the reading of compounds, Min is the reading of the blank solution, and Max is the reading of 10 μM SRC. c. The concentration-response curve data were fitted by a four-parameter logistic nonlinear regression model, and Emax was the TOP value of the fitted curve.

[3] = Metabolic stability in mouse liver microsomes; type: in vitro ADME, CD-1 mice; conditions: for half-life: CD-1; for microsomal CLint: CD-1, 0.5 mg protein/mL
From the text: as §1, §2, §3, §4

[4] = Pharmacokinetic (PK) assay in mice; type: in vivo; conditions: CD-1 mice
Experimental: The PK of each compound was determined as follows: 6 CD-1 mice (obtained from Shanghai Lingchang Biotechnology Co., Ltd.) were divided into two groups, 3 mice in each group. One group was administered intravenously at a dose of 1 mg/kg, and the vehicle was 5% DMSO/40% PEG400/55% (20% 3-CD); one group was administered by oral gavage at a dose of 5 mg/kg, and the vehicle was DMSO/1% methylcellulose (1:99). Blood samples were collected from saphenous vein of lower leg in each group at 0, 0.083, 0.25, 0.5, 1, 2, 4, 6, 8 and 24 h after administration. Approximately 40 μL of the blood samples were collected into anticoagulant tubes containing EDTA-K2. Immediately after collection, the tubes were inverted at least 5 times to ensure uniform mixing, and then placed on ice. The blood samples collected at each time point were centrifuged at 4° C., 8000 rpm for 5 minutes to obtain plasma. Another 1.5 mL centrifuge tube was marked with the compound name, animal number, and time point, and the plasma was transferred to this tube. The plasma was stored at −80° C. until analysis.
Compound concentrations in plasma were determined by UPLC-MS/MS method, and the pharmacokinetic parameters were calculated by Phoenix WinNolin 6.4 pharmacokinetic software on the obtained data.

[5] = maximum activation rate, TOP of fitted curve

Structure (SMILES)	half-life [1] [h]	% Remaining (T = 60 min) [1] [%]	pEC50 [2]	Emax [2] [%]	pEC50 (GST-RORγ LBD (263-509))	Emax (GST-RORγ LBD (263-509); [5]) [%]	microsomal CLint [1] [µL/min/mg]	% Remaining (T = 60 min) [3] [%]	half-life [3] [h]	CL_obs ([4]; IV 1 mg/kg, values marked **)	AUC(0-t) ([4]; mouse, plasma, IV 1 mg/kg) [ng·h/mL]	Cmax ([4]; mouse, plasma, IV 1 mg/kg) [ng/mL]	half-life ([4]; mouse, plasma, IV 1 mg/kg) [h]	Vd ([4]; mouse, plasma, IV 1 mg/kg, values marked *, read-out: Vss) [L/kg]	bioavailability ([4]; mouse, plasma, Po 5 mg/kg vs IV 1 mg/kg) [%]	AUC(0-t) ([4]; mouse, plasma, Po 5 mg/kg) [ng·h/mL]	Cmax ([4]; mouse, plasma, Po 5 mg/kg) [ng/mL]	half-life ([4]; mouse, plasma, Po 5 mg/kg) [h]	Emax % (GST-RORγ LBD (263-509); [5]) [%]	microsomal CLint [3] [µL/min/mg]
CCS(=O)(=O)c1ccc(CC(=O)Nc2cc(Cl)c(-c3ccc(S(=O)(=O)C(C)C)cc3)c(Cl)c2)cc1 [Example 3, N-(2,6-Dichloro-4′-(isopropylsulfonyl)-[1,1′-biphenyl]-4-yl)-2-(4-(ethylsulfonyl)phenyl)acetamide]	0.232	4.6	7.85	50.5	7.85	223														
CCS(=O)(=O)c1ccc(CC(=O)Nc2cc(Cl)c(-c3ccc(S(=O)(=O)CC)cc3)c(Cl)c2)cc1 [Example 1, N-(2,6-Dichloro-4′-(ethylsulfonyl)-[1,1′-biphenyl]-4-yl)-2-(4-(ethylsulfonyl)phenyl)acetamide]	0.697	32.4	7.33	87.1	7.84	213	33.1	11.70	0.342											67.6
CS(=O)(=O)c1ccc(-c2c(Cl)cc(NC(=O)Cc3ccc(S(C)(=O)=O)cn3)cc2Cl)cc1 [Example 10, N-(2,6-Dichloro-4′-(methylsulfonyl)-[1,1′-biphenyl]-4-yl)-2-(5-(methylsulfonyl)pyridin-2-yl)acetamide]	> 2.42	92.5	5.84	59	6.94	159	< 9.6	89.90	> 2.42											< 9.6
CS(=O)(=O)c1ccc(C(CO)C(=O)Nc2cc(Cl)c(-c3ccc(S(=O)(=O)C4CC4)cc3)c(Cl)c2)cc1 (stereo not drawn) [Example 33, N-(2,6-Dichloro-4′-(cyclopropylsulfonyl)-[1,1′-biphenyl]-4-yl)-2-(4-(methylsulfonyl)phenyl)-3-hydroxypropionamide]			7.03	69.8	7.88	202														
COCC(C(=O)Nc1ccc(-c2ccc(S(=O)(=O)C3CC3)cc2)c(C(F)(F)F)c1)c1ccc(S(C)(=O)=O)cc1 (stereo not drawn) [Example 42, N-(4′-(Cyclopropylsulfonyl)-2-(trifluoromethyl)-[1,1′-biphenyl]-4-yl)-3-methoxy-2-(4-(methylsulfonyl)phenyl)propionamide]			6.98	60.7	7.90	194														
CCS(=O)(=O)c1ccc(C(CO)C(=O)Nc2cc(Cl)c(-c3ccc(S(=O)(=O)C4CC4)cc3)c(Cl)c2)cc1 (single isomer, unassigned) [Example 39, (S)—N-(2,6-dichloro-4′-(cyclopropylsulfonyl)-[1,1′-biphenyl]-4-yl)-2-(4-(ethylsulfonyl)phenyl)-3-hydroxypropionamide or (R)—N-(2,6-dichloro-4′-(cyclopropylsulfonyl)-[1,1′-biphenyl]-4-yl)-2-(4-(ethylsulfonyl)phenyl)-3-hydroxypropionamide]					7.87					8.22** mL/min/kg	2050	1080	3.7	1.53	17.1	1720	400	3	181.3	

The next lines start with results.

half-life [1] [h]	% Remaining (T = 60 min) [1] [%]	pEC50 [2]	Emax [2] [%]	pEC50 (GST-RORγ LBD (263-509))	Emax (GST-RORγ LBD (263-509); [5]) [%]	microsomal CLint [1] [µL/min/mg]	% Remaining (T = 60 min) [3] [%]	half-life [3] [h]	CL_obs ([4]; IV 1 mg/kg, values marked **)	AUC(0-t) ([4]; mouse, plasma, IV 1 mg/kg) [ng·h/mL]	Cmax ([4]; mouse, plasma, IV 1 mg/kg) [ng/mL]	half-life ([4]; mouse, plasma, IV 1 mg/kg) [h]	Vd ([4]; mouse, plasma, IV 1 mg/kg, values marked *, read-out: Vss) [L/kg]	bioavailability ([4]; mouse, plasma, Po 5 mg/kg vs IV 1 mg/kg) [%]	AUC(0-t) ([4]; mouse, plasma, Po 5 mg/kg) [ng·h/mL]	Cmax ([4]; mouse, plasma, Po 5 mg/kg) [ng/mL]	half-life ([4]; mouse, plasma, Po 5 mg/kg) [h]	Emax % (GST-RORγ LBD (263-509); [5]) [%]	Structure (SMILES)	microsomal CLint [3] [µL/min/mg]
> 2.42	107.4	< 5.52		8.17	186	< 9.6	71	2.11											CCS(=O)(=O)c1ccc(-c2c(Cl)cc(NCC(C(=O)O)c3ccc(S(=O)(=O)CC)cc3)cc2Cl)cc1 (stereo not drawn) [Example 12-1, 3-(2,6-Dichloro-4′-(ethylsulfonyl)-[1,1′-biphenyl]-4-amino)-2-(4-(ethylsulfonyl)phenyl)propionic acid]	
		6.86	73.8	8.15	179														CCS(=O)(=O)c1ccc(C(CO)C(=O)Nc2cc(Cl)c(-c3ccc(S(=O)(=O)C4CC4)cc3)c(Cl)c2)cc1 (stereo not drawn) [Example 22-1, N-(2,6-Dichloro-4′-(cyclopropylsulfonyl)-[1,1′-biphenyl]-4-yl)-2-(4-(ethylsulfonyl)phenyl)-3-hydroxypropionamide]	
